Results published in US9981968B2, “Substituted pyrrolo[2,3-d]pyrimidines for the treatment of cancer and proliferative disorders” (Northwestern University, priority 2013, dated 2018).

Experiments:
Format in all cases: cell-based
[1] = tested on: UACC-257; experiment: SRB growth assay, UACC-257; settings: Homo sapiens, UACC-257 (Melanoma), 48 hours, read-out: Percent viability
Text: (§1) Tested cell lines included, Leukemia: CCRF-CEM, HL-60(TB), MOLT-4, RPMI-8226 and SR; Non-Small Cell Lung: A549/ATCC, EKVX, HOP-62, HOP-92, NCI-H226, NCI-H23, NCI-H322M, NCI-H460 and NCI-H522; Colon: COLO 205, HCC-2998, HCT-116, HCT-15. HT29, KM12 and SW-620; CNS: SF-268, SF-295, SF-539, SNB-19, SNB-75 and U251; Melanoma: LOX IMVI, MALME-3M, M14, MDA-MB-435, SK-MEL-2, SK-MEL-28, SK-MEL-5, UACC-257 and UACC-62; Ovarian: IGR-OV1, OVCAR-3, OVCAR-4, OVCAR-5, OVCAR-8. NCI/ADR-RES and SK-OV-3; Renal: 786-0, A498, ACHN, CAKI-1, RXF 393, SN12C, TK-10 and UO-31; Prostate: DU-145 and PC-3; and Breast: MCF7, MDA-MB-231/ATCC, MDA-MB-468, HS 578T, BT-549 and T-47D.
(§2) The cells were cultured in RPMI1640 media supplemented with 10% Fetal Bovine Serum (FBS), 2 mM glutamine and with 5% CO2 and 37° C. For experiment, 5% of FBS and 50 ug/mL of gentamycin were used. Test articles were 10 μM of NUCL 381-3 or 10 μM NUCL 383-3. The positive control was 10 μM of doxorubicin.
(§3) Cells were plated in 96 well plates. The cells were plated in triplicate. Cells were plated at the densities based on NCI recommendation. Time zero cells (Tz) were fixed the following day with 50% or 80% ice cold Trichloracetic acid (TCA) and washed 5× with water. At 48 hours post addition of treatments, all remaining plates were fixed in 80% ice cold Trichloracetic acid (TCA) and washed 5× with water. After drying, one hundred microliters of 0.4% Sulphorhodamine B (SRB) in 1% acetic acid was added to each plate including the Tzero plate and incubated for 10 minutes at room temperature. After 5 additional washes with 1% acetic acid, plates were allowed to dry. One hundred microliters of Trizma base was added to each well and plates were read at 515 nm.
(§4) Percent of growth was calculated by the following formulas: [Ti/C]×100, where: Tz=absorbance readings for wells at time zero without treatment; C=absorbance readings of untreated cells (without treatment); and Ti=absorbance reading of wells with treatment.

[2] = tested on: RPMI-8226; experiment: SRB growth assay, RPMI-8226; settings: Homo sapiens, RPMI-8226 (Leukemia), 48 hours, read-out: Percent viability
Text: as §1, §2, §3, §4

[3] = tested on: A498; experiment: SRB growth assay, A498; settings: Homo sapiens, A498 (Renal), 48 hours, read-out: Percent viability
Text: as §1, §2, §3, §4

[4] = tested on: NCI-H322M; experiment: SRB growth assay, NCI-H322M; settings: Homo sapiens, NCI-H322M (Non-Small Cell Lung), 48 hours, read-out: Percent viability
Text: as §1, §2, §3, §4

[5] = tested on: LOX IMVI; experiment: SRB growth assay, LOX IMVI; settings: Homo sapiens, LOX IMVI (Melanoma), 48 hours, read-out: Percent viability
Text: as §1, §2, §3, §4

[6] = tested on: MM1S; experiment: SRB growth assay, MM1S; settings: Homo sapiens, MM1.S, MM1S (Multiple Myeloma), 48 hours, read-out: Percent viability
[7] = tested on: SNB-75; experiment: SRB growth assay, SNB-75; settings: Homo sapiens, SNB-75 (CNS), 48 hours, read-out: Percent viability
Text: as §1, §2, §3, §4

[8] = tested on: SW-620; experiment: SRB growth assay, SW-620; settings: Homo sapiens, SW-620 (Colon), 48 hours, read-out: Percent viability
Text: as §1, §2, §3, §4

[9] = tested on: TK-10; experiment: SRB growth assay, TK-10; settings: Homo sapiens, TK-10 (Renal), 48 hours, read-out: Percent viability
Text: as §1, §2, §3, §4

[10] = tested on: HCC-2998; experiment: SRB growth assay, HCC-2998; settings: Homo sapiens, HCC-2998 (Colon), 48 hours, read-out: Percent viability
Text: as §1, §2, §3, §4

[11] = tested on: IGR-OV1; experiment: SRB growth assay, IGR-OV1; settings: Homo sapiens, IGROV-1, IGR-OV1 (Ovarian), 48 hours, read-out: Percent viability
Text: as §1, §2, §3, §4

[12] = tested on: 786-0; experiment: SRB growth assay, 786-0; settings: Homo sapiens, 786-0 (Renal), 48 hours, read-out: Percent viability
Text: as §1, §2, §3, §4

[13] = tested on: ACHN; experiment: SRB growth assay, ACHN; settings: Homo sapiens, ACHN (Renal), 48 hours, read-out: Percent viability
Text: as §1, §2, §3, §4

[14] = tested on: NCI-H522; experiment: SRB growth assay, NCI-H522; settings: Homo sapiens, NCI-H522 (Non-Small Cell Lung), 48 hours, read-out: Percent viability
Text: as §1, §2, §3, §4

[15] = tested on: HOP-92; experiment: SRB growth assay, HOP-92; settings: Homo sapiens, HOP-92 (Non-Small Cell Lung), 48 hours, read-out: Percent viability
Text: as §1, §2, §3, §4

[16] = tested on: SK-OV-3; experiment: SRB growth assay, SK-OV-3; settings: Homo sapiens, SK-OV-3 (Ovarian), 48 hours, read-out: Percent viability
Text: as §1, §2, §3, §4

[17] = tested on: MALME-3M; experiment: SRB growth assay, MALME-3M; settings: Homo sapiens, MALME-3M (Melanoma), 48 hours, read-out: Percent viability
Text: as §1, §2, §3, §4

[18] = tested on: BT-549; experiment: SRB growth assay, BT-549; settings: Homo sapiens, BT-549 (Breast), 48 hours, read-out: Percent viability
Text: as §1, §2, §3, §4

[19] = tested on: UO-31; experiment: SRB growth assay, UO-31; settings: Homo sapiens, UO-31 (Renal), 48 hours, read-out: Percent viability
Text: as §1, §2, §3, §4

[20] = tested on: NCI-H460; experiment: SRB growth assay, NCI-H460; settings: Homo sapiens, NCI-H460 (Non-Small Cell Lung), 48 hours, read-out: Percent viability
Text: as §1, §2, §3, §4

[21] = tested on: SN12C; experiment: SRB growth assay, SN12C; settings: Homo sapiens, SN12C (Renal), 48 hours, read-out: Percent viability
Text: as §1, §2, §3, §4

[22] = tested on: SF-295; experiment: SRB growth assay, SF-295; settings: Homo sapiens, SF-295 (CNS), 48 hours, read-out: Percent viability
Text: as §1, §2, §3, §4

[23] = tested on: MCF7; experiment: SRB growth assay, MCF7; settings: Homo sapiens, MCF7 (Breast), 48 hours, read-out: Percent viability
Text: as §1, §2, §3, §4

`COc1cccc2c1C(=O)c1c(O)c3c(c(O)c1C2=O)C[C@@](O)(C(=O)CO)C[C@@H]3O[C@H]1C[C@H](N)[C@H](O)[C@H](C)O1` [Doxorubicin, reference compound] was tested, and the viability at 10 µM [1] was 100%, the viability at 10 µM [2] was 44.2% and the viability at 10 µM [3] was 62.9%. For the same compound, the viability at 10 µM [4] was 42.6%, the viability at 10 µM [5] was 24.4% and the viability at 10 µM [6] was 26.4%. For the same compound, the viability at 10 µM [7] was 36%, the viability at 10 µM [8] was 19% and the viability at 10 µM [9] was 35.9%. The viability at 10 µM [10] was 20.9%, the viability at 10 µM [11] was 8.63% and the viability at 10 µM [12] was 17.6%. The viability at 10 µM [13] was 40.2%, the viability at 10 µM [14] was 18.1% and the viability at 10 µM [15] was 98.5%. For the same compound, the viability at 10 µM [16] was 47.8%, the viability at 10 µM [17] was 15.8% and the viability at 10 µM [18] was 62.5%. For the same compound, the viability at 10 µM [19] was 28.2%, the viability at 10 µM [20] was 35% and the viability at 10 µM [21] was 45.4%. It also gave a viability at 10 µM [22] of 11.2% and a viability at 10 µM [23] of 69.1%.
For `FC(F)(F)c1cn(CC2CCNCC2)c2ncnc(Cl)c12` [NUCC-0000381], the viability at 10 µM [1] was 87.2%, the viability at 10 µM [2] was 100% and the viability at 10 µM [3] was 93.8%. The viability at 10 µM [4] was 68.1%, the viability at 10 µM [5] was 26% and the viability at 10 µM [6] was 52.3%. It also gave a viability at 10 µM [7] of 83.3%, a viability at 10 µM [8] of 27.2% and a viability at 10 µM [9] of 88.5%. The viability at 10 µM [10] was 93.5%, the viability at 10 µM [11] was 36.9% and the viability at 10 µM [12] was 94.2%. The viability at 10 µM [13] was 23.3%, the viability at 10 µM [14] was 38.7% and the viability at 10 µM [15] was 56.8%. For the same compound, the viability at 10 µM [16] was 56.5%, the viability at 10 µM [17] was 101% and the viability at 10 µM [18] was 103%. The viability at 10 µM [19] was 19.7%, the viability at 10 µM [20] was 26.4% and the viability at 10 µM [21] was 42.1%. It also gave a viability at 10 µM [22] of 44.4% and a viability at 10 µM [23] of 89.8%.
Compound `CS(=O)(=O)N1CCC(Cn2cc(C(F)(F)F)c3c(Cl)ncnc32)CC1` [NUCC-0000383] has a viability at 10 µM [1] of 74.7%, a viability at 10 µM [2] of 100% and a viability at 10 µM [3] of 101%. It also gave a viability at 10 µM [4] of 53.8%, a viability at 10 µM [5] of 35.8% and a viability at 10 µM [6] of 58.2%. For the same compound, the viability at 10 µM [7] was 23.3%, the viability at 10 µM [8] was 25.7% and the viability at 10 µM [9] was 73.9%. For the same compound, the viability at 10 µM [10] was 73.2%, the viability at 10 µM [11] was 77.5% and the viability at 10 µM [12] was 69.5%. It also gave a viability at 10 µM [13] of 77.8%, a viability at 10 µM [14] of 21.7% and a viability at 10 µM [15] of 97.6%. The viability at 10 µM [16] was 74.2%, the viability at 10 µM [17] was 42.7% and the viability at 10 µM [18] was 79.2%. For the same compound, the viability at 10 µM [19] was 3.37%, the viability at 10 µM [20] was 69.1% and the viability at 10 µM [21] was 25.8%. For the same compound, the viability at 10 µM [22] was 56.2% and the viability at 10 µM [23] was 108%.
